Source: patent publication US11286226B2, “Polycyclic carbogenic molecules and uses thereof as anti-cancer agents” (Northwestern University, priority 2017, dated 2022)
Like-named read-outs stand apart in the source and are kept apart here.

How the values were obtained:
[1] = tested on: HT29 (colon); experiment: Cell viability at 1 mM (CellTiter-GLO), HT29; format: cell-based; conditions: Homo sapiens, read-out: Percent Cell Viability of Treated Cell Lines at 1.0 mM, HT29
Description: (§1) Cell lines PC-3, HT29, Hela, and MDA-MB-231 were cultured in RPMI1640 with 10% FBS media. Cell line MDA-MB-231-LM24 was cultured in DMEM with 400 ug/mL geneticin.
(§2) PC-3, HT29, Hela, and MDA-MB-231, and MDA-MB-231-LM24 cells were plated in […] at a density of 20,000 cells per well (based on NCI recommendation for adherent cells) in 90 μL volume of 5% FBS RPMI1640 complete media with 50 μg/mL gentamicin and incubated at 37° C. overnight. Each compound was diluted in RPMI1640 complete media supplemented with 5% FBS and 50 μg/mL of gentamycin, and 10 μL of this solution was added to each well to give a final concentration of 1 mM (1% overall DMSO, N=4 wells).
(§3) Cells treated with Doxorubicin with 1% overall DMSO were used as a positive control, and cells media containing 1% DMSO were used as a negative control.
(§4) 48 hours following treatment, cell proliferation was evaluated using the CellTiter-GLO Luminescent Cell Viability Assay (Promega, Madison, Wis.). Plates were allowed to equilibrate to room temperature for 20 minutes, and 100 μL of CellTiter-GLO reagent was added to all wells. The plates were shaken for 2 minutes and incubated at room temperature for 10 minutes. Luminescence was measured using a Syngergy H1-M microplate reader (BioTek Instruments, Inc.).

[2] = tested on: PC-3 (prostate); experiment: Cell viability at 1 mM (CellTiter-GLO), PC-3; format: cell-based; conditions: Homo sapiens, 48 h, read-out: Percent Cell Viability of Treated Cell Lines at 1.0 mM, PC-3
Description: as §1, §2, §3, §4

[3] = tested on: HeLa (cervix); experiment: Cell viability at 1 mM (CellTiter-GLO), HeLa; format: cell-based; conditions: Homo sapiens, 48 h, read-out: Percent Cell Viability of Treated Cell Lines at 1.0 mM, HeLa
Description: as §1, §2, §3, §4

[4] = tested on: MDA-MB-231 (breast); experiment: Cell viability at 1 mM (CellTiter-GLO), MDA-MB-231; format: cell-based; conditions: Homo sapiens, read-out: Percent Cell Viability of Treated Cell Lines at 1.0 mM, MDA-MB-231
Description: as §1, §2, §3, §4

[5] = tested on: MDA-MB-231-LM24 (metastatic breast); experiment: Cell viability at 1 mM (CellTiter-GLO), MDA-MB-231-LM24; format: cell-based; conditions: Homo sapiens, read-out: Percent Cell Viability of Treated Cell Lines at 1.0 mM, MDA-MB-231-LM24
Description: as §1, §2, §3, §4

[6] = Cell viability at 1 mM (CellTiter-GLO), MCF10A; format: cell-based; conditions: human, MCF10A cells (normal breast); 1.0 mM in DMSO, 48 h, MCF10A; read-out: Percent Cell Viability of Treated Cell Lines at 1.0 mM, MCF10A
Description: (§5) Normal breast cell line MCF10A was cultured in DMEM/F12 with 5% horse serum, 20 ng/mL EGF, […], 100 ng/mL cholera toxin, 10 μg/mL insulin, and 1% pen/strep.
(§6) Normal breast cells (MCF10A) were plated in 96-well black plates at a density of 20,000 cells per well (based on the NCI recommendation for adherent cells) in 90 μL volume of DMEM/F12 with 2% horse serum, 0.5 μg/mL hydrocortisone, 100 ng/mL cholera toxin, 10 μg/mL insulin, and 1% pen/strep, and incubated at 37° C. overnight. The compounds were diluted in the media specified above, and 10 μL of this solution was added to each well to give a final concentration of 1 mM (1% overall DMSO, N=4 wells).
as §3, §4

[7] = tested on: MCF10A ("normal" breast); experiment: Cell viability at 1 mM (CellTiter-GLO), MCF10A; format: cell-based; conditions: non-tumorigenic breast epithelial cell line, 1.0 mM
Description: as §5, §6, §3, §4

[8] = tested on: PC3 (prostate) cancer cell line; experiment: Cell viability assay at three concentrations (FIG. 7), PC3; format: cell-based, human; conditions: three different concentrations
[9] = tested on: MDA-MB-231 (breast) cancer cell line; experiment: Cell viability assay at three concentrations (FIG. 7), MDA-MB-231; format: cell-based, human; conditions: three different concentrations
[10] = tested on: MDA-MB-231-LM24; experiment: IC50 experiment (CellTiter-GLO), MDA-MB-231-LM24; format: cell-based, human
Description: as §1
(§7) The compound was diluted in RPMI1640 complete media supplemented with 5% FBS and 50 μg/mL of gentamycin, and 100 μL of this solution was added to each well to give a final concentration of 0.00001-1 mM (N=4 wells). DMSO was held constant at 1%, for all dose points.
as §4, with “Inc.). The IC50 value was determined by Prism GraphPad Software.” for “Inc.).”

[11] = tested on: MCF10A; experiment: IC50 experiment (CellTiter-GLO), MCF10A; format: cell-based; conditions: Homo sapiens, MCF-10A; 48 h, 1% DMSO; read-out: IC50 against MCF10A
Description: as §5, §7
as §4, with “Inc.). The IC50 value was determined by Prism GraphPad Software.” for “Inc.).”

[12] = tested on: Plasmodium falciparum; conditions: reported value (ref. 60); read-out: IC50 against the malaria parasite Plasmodium falciparum; cited from earlier work
[13] = tested on: normal human cells; conditions: reported (ref. 60); cited from earlier work
[14] = HT-29, 1.0 mM in DMSO, 48 h, HT29
[15] = 1.0 mM in DMSO, 48 h, MDA-MB-231
[16] = 1.0 mM in DMSO, 48 h, MDA-MB-231-LM24

Row | Compound | viability at 1000 µM [1, 14] [%] | viability at 1000 µM ([2]; 1.0 mM in DMSO, PC-3) [%] | viability at 1000 µM ([3]; 1.0 mM in DMSO) [%] | viability at 1000 µM [4, 15] [%] | viability at 1000 µM [5, 16] [%] | viability at 48 h, 1 mM [6] [%] | further results
1 | O=C1C=CC[C@H]2C=C[C@@H]3CC=CC(=O)[C@H]3[C@H]12 [Compound 13] | 2 | 0 | 4 | 26 | 2 | 1 | activity against MCF10A cell line [7]: highly active
2 | CC1=CC[C@H]2C=C[C@@H]3CC=C(C)C(=O)[C@H]3[C@@H]2C1=O [Compound 14] | 1 | 72 | 46 | 69 | 67 |  | 
3 | CC1=CC(=O)[C@@H]2[C@H]3C(=O)C=C(C)C[C@@H]3C=C[C@H]2C1 [Compound 15] | 66 | 63 | 40 | 11 | 54 |  | 
4 | CC1=CC[C@H]2C=C(C)[C@@H]3CC=C(C)C(=O)[C@H]3[C@@H]2C1=O [Compound 18] |  |  |  |  |  |  | activity in cell viability assay, PC3 [8]: promising activity; activity in cell viability assay, MDA-MB-231 [9]: promising activity
5 | CC1=CC[C@H]2C(C)=C[C@@H]3CC=CC(=O)[C@@]3(C)[C@@H]2C1=O [Compound 19] | 1 | 1 | 0 | 0 | 0 |  | 
6 | CC1=CC[C@@H]2C(C)=C[C@@]3(C)CC=CC(=O)[C@@H]3[C@H]2C1=O [Compound 20] | 31 | 11 | 2 | 43 | 10 |  | 
7 | CC1=CC[C@@H]2C(C)=C[C@@H]3[C@H](C(=O)C=CC3(C)C)[C@H]2C1=O [Compound 21] |  |  |  |  |  | 4 | viability at 1000 µM ([1]; HT-29, 48 h): 0%; viability at 1000 µM [2]: 0%; viability at 1000 µM [3]: 0%; viability at 1000 µM ([4]; MDA-MB-231, 48 h): 0%; viability at 1000 µM ([5]; MDA-MB-231-LM24, 48 h): 0%; activity against MCF10A cell line [7]: highly active
8 | CC1=CC[C@H]2C(C)=CCC3(CCC=CC3=O)[C@@H]2C1=O (stereo partly shown) [Compound 24] | 0 | 0 | 3 | 1 | 0 | 4 | activity against MCF10A cell line [7]: highly active; activity in cell viability assay, PC3 [8]: promising activity; activity in cell viability assay, MDA-MB-231 [9]: promising activity
9 | O=C1C=CC[C@H]2CC=C[C@@H]3CC=CC(=O)[C@H]3[C@H]12 [Compound 25] | 0 | 0 | 21 | 6 | 1 |  | 
10 | C[C@]12CC(=O)C=C[C@@H]1CC=CC2=O [Compound 28] | 0 | 1 | 0 | 2 | 16 |  | 
11 | C[C@@]12C=CC(=O)C[C@H]1C(=O)C=CC2 [Compound 29] | 8 | 2 | 22 | 62 | 26 |  | 
12 | O=C1C=CC[C@@H]2[C@@H]1[C@@H]1C(=O)C=CC[C@H]1C1O[C@H]12 (stereo partly shown) [Compound 31] | 0 | 0 | 2 | 26 | 3 | 5 | activity against MCF10A cell line [7]: highly active
13 | O=C1C2O[C@@H]2C[C@H]2C=C[C@@H]3CC4O[C@H]4C(=O)[C@H]3[C@H]12 (stereo partly shown) [Compound 32] | 1 | 1 | 0 | 25 | 0 | 70 | IC50 ([10]; Homo sapiens, MDA-MB-231-LM24, 48 h, 1% DMSO, read-out: IC50 against MDA-MB-231-LM24): 200 µM; selectivity between cancer versus "normal" cell lines ([10]; MCF10A IC50 versus MDA-MB-231-LM24 IC50): 15 times; IC50 [11]: 3100 µM
14 | O=C1CCC[C@H]2CC[C@@H]3CCCC(=O)[C@H]3[C@H]12 [Compound 33] | 51 | 77 | 13 | 75 | 60 |  | 
15 | CC1=C[C@@H]2[C@H](C(=O)CCC2(C)C)[C@H]2C(=O)[C@@H](C)CC[C@H]12 [Compound 36] | 64 | 77 | 41 | 53 | 55 |  | 
16 | [C-]#[N+][C@]1(C)[C@H](C)C[C@@H]2C[C@H](C)[C@H]3CC[C@](C)([N+]#[C-])[C@H]4CC[C@H]1[C@@H]2[C@H]34 [Compound 39, (+)-7,20-diisocyanoadociane] |  |  |  |  |  |  | IC50 [12]: 0.0047 µM; activity against normal human cells [13]: inert
